Assay [1] deals with Plasmodium falciparum. The assay is described as follows: Antimalarial activity as reduced parasitaemia after 72 hrs against chloroquine-resistant Plasmodium falciparum Dd2 in human erythrocytes by DAPI stain. It is filed as functional, organism-based. As to conditions: Dd2, 72 h.
For the next assay, the system named is Heme. The assay is described as follows: Inhibition of heme crystallization by parasite-independent assay. It is filed as functional.
Assay [2] has as its system Plasmodium falciparum. The experiment in a line: Antimalarial activity as reduced parasitaemia after 72 hrs against chloroquine-sensitive Plasmodium falciparum 3D7 in human erythrocytes by DAPI stain. It is filed as functional, organism-based. Particulars: 3D7, 72 h.
For assay [3], the system named is Plasmodium falciparum. The assay is described as follows: Antimalarial activity as reduced parasitaemia after 72 hrs against chloroquine-resistant Plasmodium falciparum 106/1 in human erythrocytes by DAPI stain. It is filed as functional, organism-based. As to conditions: 106/1, 72 h.
The subject of assay [4] is Plasmodium falciparum. The experiment in a line: Antimalarial activity as reduced parasitaemia after 72 hrs against chloroquine-resistant Plasmodium falciparum FCB in human erythrocytes by DAPI stain. It is filed as functional, organism-based.
Assay [5] has as its system Plasmodium falciparum. The assay is described as follows: Antimalarial activity as reduced parasitaemia after 72 hrs against chloroquine-resistant Plasmodium falciparum 7G8 in human erythrocytes by DAPI stain. As to conditions: 7G8, 72 h. It is filed as functional, organism-based.
Assay [6] deals with Plasmodium falciparum. The assay is described as follows: Antimalarial activity against Plasmodium falciparum NF54. It is filed as functional, organism-based.
For assay [7], the system named is Plasmodium falciparum. The assay is described as follows: Antimalarial activity against Plasmodium falciparum K1. It is filed as functional, organism-based.

The source made the active and inactive calls. The calls are words filed in the database; no cut-off is given here. A value given as a limit tells only on which side of the number the result lay.

For orientation: EC50 means the concentration that produces a half-maximal response.

For `CC1CCC2(CC1)CC(C)(CCOCc1ccccc1)OO2` (mixture of isomers), the EC50 in the assay with Plasmodium falciparum [1] is 59 nM; in the assay with Plasmodium falciparum [2] it was 545 nM. The outcome in the assay on Heme was inactive.
For `CC1(CC(=O)NCC2C3CC4CC(C3)CC2C4)CC2(CCCCC2)OO1` (stereo unspecified) the same measures were 57 nM, 81 nM and “inactive”.
With `CCN(CC)CCCC(C)Nc1ccnc2cc(Cl)ccc12` (stereo unspecified) [CHLOROQUINE], the EC50 in the assay with Plasmodium falciparum [3] stood at 14 nM; in the assay on Plasmodium falciparum [1], 66 nM; in the assay on Plasmodium falciparum [2], 7 nM; with Plasmodium falciparum [4], 52 nM; in the assay with Plasmodium falciparum [5] it was 46 nM.
For `C1CCC2(CC1)CC1(OO2)C2CC3CC(C2)CC1C3` (stereo unspecified), the EC50 in the assay with Plasmodium falciparum [6] and in the assay on Plasmodium falciparum [7] was > 2000 nM in each case. Moreover, in the assay with Heme, the outcome was inactive.
Turning to `CC1(CCOCc2ccccc2)CC2(CCC(C(C)(C)C)CC2)OO1` (mixture of isomers), the EC50 with Plasmodium falciparum [1] came out at 74 nM; with Plasmodium falciparum [2] it was 86 nM. The outcome in the assay with Heme was inactive.
Taken in the same sequence, the figures for `NCCNc1ccnc2cc(Cl)ccc12` were 155 nM, 57 nM and “inactive”.
In the case of `CC1CCCC2(C1)CC(C)(CC(=O)O)OO2` (mixture of isomers), the EC50 in the assay with Plasmodium falciparum [1] and in the assay on Plasmodium falciparum [2] was > 1000 nM in each case.
On to `CCNC(=O)CC1(C)CC2(CCCCC2)OO1` (stereo unspecified), for which the EC50 in the assay with Plasmodium falciparum [3] was 142 nM; in the assay with Plasmodium falciparum [1] it was 99 nM; in the assay with Plasmodium falciparum [2], 485 nM; in the assay with Plasmodium falciparum [4], 356 nM; in the assay with Plasmodium falciparum [5], 83 nM.
On to `CC1CCCC2(C1)CC(C)(CCOCc1ccccc1)OO2` (mixture of isomers), for which the values for the EC50 with Plasmodium falciparum [1] and with Plasmodium falciparum [2] were 151 nM and 92 nM, respectively. In the assay with Heme, the result was inactive.
Take `C1CCC2(CC1)CC1(CCCCC1)OO2`: the EC50 came out at 523 nM in the assay on Plasmodium falciparum [6] and 195 nM with Plasmodium falciparum [7].
On to `CC1(CCOCc2ccccc2)CC2(CCCCC2)OO1` (stereo unspecified), for which the figures for the half-maximal effective concentration (EC50) in the assay with Plasmodium falciparum [1] and with Plasmodium falciparum [2] were 146 nM and 141 nM, respectively. Also, in the assay on Heme, the result was inactive.
Take `CC(=O)OCCC1(C)CC2(CCCC(C)C2)OO1` (mixture of isomers): the EC50 in the assay on Plasmodium falciparum [1] amounted to 114 nM; in the assay with Plasmodium falciparum [2] it was 109 nM. In addition, the result in the assay with Heme was inactive.
On to `C1CCC2(CC1)OOC1(O2)C2CC3CC(C2)CC1C3` (stereo unspecified), for which the results for the EC50 in the assay on Plasmodium falciparum [6] and in the assay with Plasmodium falciparum [7] were 5.3 nM and 3.67 nM, respectively.
As to `COCCC1(C)CC2(CCCC(C)C2)OO1` (mixture of isomers), the EC50 in the assay with Plasmodium falciparum [1] amounted to 62 nM; in the assay on Plasmodium falciparum [2], 69 nM. Also, in the assay with Heme, the outcome was inactive.
For `C[C@@H]1CC[C@H]2[C@@H](C)C(=O)O[C@@H]3O[C@@]4(C)CC[C@@H]1[C@]32OO4` [ARTEMISININ], the EC50 in the assay on Plasmodium falciparum [3] turned out to be 13 nM; in the assay on Plasmodium falciparum [1] it was 4 nM; with Plasmodium falciparum [2], 4 nM; in the assay on Plasmodium falciparum [4] it was 8 nM; in the assay with Plasmodium falciparum [5] it was 48 nM.
As to `CC1CCCC2(C1)CC(C)(CCO)OO2` (mixture of isomers), the EC50 in the assay with Plasmodium falciparum [1] was 149 nM; in the assay on Plasmodium falciparum [2], 241 nM. In addition, the result with Heme was inactive.
As to `O=C(CN1CCC2(CCCCC2)C1)NCCNc1ccnc2cc(Cl)ccc12`, the half-maximal effective concentration (EC50) is 53 nM in the assay with Plasmodium falciparum [3]; 78 nM in the assay with Plasmodium falciparum [1]; 69 nM with Plasmodium falciparum [2]; 80 nM in the assay on Plasmodium falciparum [4]; 91 nM in the assay with Plasmodium falciparum [5]. Moreover, the outcome with Heme was inactive.
As for `CC1(CC(=O)NCCNc2ccnc3cc(Cl)ccc23)CC2(CCCCC2)OO1` (stereo unspecified), the EC50 with Plasmodium falciparum [3] was determined as 22 nM; in the assay on Plasmodium falciparum [1] it was 6 nM; in the assay with Plasmodium falciparum [2], 5 nM; in the assay with Plasmodium falciparum [4], 16 nM; with Plasmodium falciparum [5], 8 nM. In addition, the result in the assay with Heme was inactive.
For `CC(C)(CO)CC1(C)C[C@]2(CC[C@H](C)CC2)OO1` (stereo partly specified), the EC50 is 897 nM in the assay with Plasmodium falciparum [1] and 332 nM in the assay on Plasmodium falciparum [2].
Take `CC1(CC(=O)NCc2ccc(-c3ccccc3)cc2)CC2(CCCCC2)OO1` (stereo unspecified): the values for the EC50 in the assay with Plasmodium falciparum [1] and with Plasmodium falciparum [2] were 77 nM and 100 nM, respectively. Moreover, the outcome in the assay with Heme was inactive.
On to `CC(C)(N)CNC(=O)CC1(C)CC2(CCCCC2)OO1` (stereo unspecified), for which the values for the EC50 in the assay with Plasmodium falciparum [1] and in the assay on Plasmodium falciparum [2] were 108 nM and 61 nM, respectively. For the same compound, in the assay with Heme, the outcome was inactive.

For the origin of these results see ChEMBL document CHEMBL1152190, “Synthesis of spiro-1,2-dioxolanes and their activity against Plasmodium falciparum” (Bioorg Med Chem Lett, 2008).
